Laboratory results as given in patent US9884091B2, “Treatment of neurological diseases” (Lancaster University Business Enterprises Limited, priority 2014, dated 2018).

Key:
[1] = tested on: APP/PS1 mouse model of AD; details: 12 months old APP/PS1 mice; cited from earlier work
APP/PS1 transgenic mice [2] = experiment: Beta-amyloid plaque load in cortex by immunohistochemistry, transgenic Alzheimer's disease mouse model; assay type: in vivo; details: FIG. 1; 25 nmol/kg i.p. once daily for 8 weeks
Description: (§1) Transgenic Alzheimer's Disease Mouse Model
(§2) Animal models have been developed to test novel drugs. A standard model for Alzheimer's disease is transgenic mice that express human mutated genes for amyloid production that are known to induce Alzheimer's disease in humans. These APP/PS1 transgenic mice recapitulate some of the symptoms of Alzheimer's disease such as the aggregation of amyloid in the brain, memory loss and the loss of synapses (Radde et al., 2006).
(§3) The APP/PS1 mice express human Swedish mutated APP and human mutated presenilin-1 which induce Alzheimer's Disease in humans.
(§4) The dose of peptide tested was 25 nmol/kg body weight. The peptides were administered by a once-daily intraperitoneal injection for 8 weeks. Saline injections were administered as a control. Five animals per group were injected with a peptide or a saline control.
(§5) Brain Tissue Analysis for Amyloid Plaques and Synapse Numbers in AD Mice
(§6) Animals (5 per group) were perfused transcardially with 30 ml of ice-cold PBS and 30 ml of ice-cold 4% paraformaldehyde to postfix the brain. The brains were removed and placed in fresh 30% sucrose solution in PBS to cryoprotect tissue and cut at a thickness of 40 μm on a cryostat. Sections were chosen according to stereological rules, with the first section taken at random and every 5th section afterwards. Between 7 and 13 sections were analysed per brain. […]

APP/PS1 transgenic mice [3] = experiment: Synaptic densities (synaptophysin immunohistochemistry) in cortex, transgenic Alzheimer's disease mouse model; assay type: in vivo; details: FIG. 2; 25 nmol/kg i.p. once daily for 8 weeks
Description: as §1, §2, §3, §4, §5, §6

C57BL/6 mice given MPTP [4] = experiment: Rotarod motor control test, MPTP Parkinson mouse model; assay type: in vivo; details: FIG. 3; 25 nmol/kg i.p. once daily
Description: (§7) A standard model to induce Parkinson like symptoms in mice is the injection of the chemical (MPTP) (Li et al., 2009). This chemical impairs or kills neurons in the brain that produce dopamine. The mice develop motor impairments, and the dopaminergic neurons in the brain are reduced in numbers and function. The enzyme tyrosine hydroxylase (TH) is required to synthetise dopamine. A loss of TH signifies a loss of dopamine production (Harkavyi et al., 2008).
(§8) Adult male C57BL/6 mice were given the dopaminergic toxin MPTP (20 mg/kg in 0.1 mL of PBS i.p. at 2-h intervals of 4 doses MPTP; Sigma) or vehicle (PBS). This treatment selectively affects dopaminergic neurons and induces Parkinson-like symptoms in mice.
as §4
Rotarod Motor Control Test
The rotarod consists of a rotating pole that accelerates over time. Mice are placed on the rod, and motor skills are tested by accelerating the rotation. As the rotation increases, animals lose grip and fall on a cushion located below the rod. […] Each animal's endurance time was recorded, and the average was calculated. Data were analysed using a one-way ANOVA with post-hoc Bonferroni tests.

C57BL/6 mice given MPTP [5] = experiment: Open-field motor activity task, MPTP Parkinson mouse model; assay type: in vivo; details: FIG. 4; 25 nmol/kg i.p. once daily
Description: as §7, §8, §4
Open-Field Motor Activity Task
Mice (6 per group) received a session of 5 min in the empty open-field (58 cm in diameter; 35 cm high walls) with painted grey walls and grey floor. […] Motor activity was recorded by total path length and travel speed. Data were analysed using two-way ANOVA with post-hoc tests.

| Substance | amyloid plaque load [1] | synaptic plasticity in area CA1 of the hippocampus and spatial memory formation [1] | beta-amyloid plaque load in the cortex (% area positive for beta amyloid) (APP/PS1 transgenic mice [2]) | beta-amyloid plaque load, compared with single GIP or GLP-1 analogues (APP/PS1 transgenic mice [2]) | synapse loss in the cortex (synaptic densities) (APP/PS1 transgenic mice [3]) | impairment of motor skills induced by MPTP (rotarod endurance time) (C57BL/6 mice given MPTP [4]) | impairment of motor activity induced by MPTP (C57BL/6 mice given MPTP [5]) |
| --- | --- | --- | --- | --- | --- | --- | --- |
| D-Ala^2-GIP | much reduced | unimpaired | – | – | – | – | – |
| YXEGTFTSDYSIYLDKQAAXEFV[Cys-40 kDAPEG]WLLAGGPSSGAPPPS[Lys-γE-C16]-NH2 (YXEGTFTSDYSIYLDKQAAXEFVXWLLAGGPSSGAPPPSX; 40 kDa PEG on Cys24; Lys γGlu-C16; C-amide; GIP/GLP1 co-agonist peptide; VARIANT 2, 20 Xaa = amino-isobutyric acid; VARIANT 24 Xaa = Cys with a covalently linked PEG molecule having an average molecular weight of 40kDa; VARIANT 40 Xaa = lysine residue connected to gamma- glutamate and C16, wherein C16 is a saturated fatty acid or palmitate) [DA2, pegylated version of DA1, position 24 modified to cysteine, γ-Glu spacer linking the C16 fatty acid] | – | – | reduces beta-amyloid plaque load | superior to the single GIP or GLP-1 analogues | protected from synapse loss | protect mice from an impairment of motor skills | protect mice from an impairment of motor activity |
